The values below come from patent US5935951A, “1-acyl-4-aliphatylaminopiperidine compounds” (Novartis Finance Corporation, priority 1994, dated 1999).

Where a name gives a salt, the structure may show the parent alone.

The target of this experiment is T1, 3H-substance P binding to the bovine retina (Bos taurus, UniProt F1MIX5).
T1 construct: from tissue; host or cells: bovine retina
T1 sequence (F1MIX5 1-407): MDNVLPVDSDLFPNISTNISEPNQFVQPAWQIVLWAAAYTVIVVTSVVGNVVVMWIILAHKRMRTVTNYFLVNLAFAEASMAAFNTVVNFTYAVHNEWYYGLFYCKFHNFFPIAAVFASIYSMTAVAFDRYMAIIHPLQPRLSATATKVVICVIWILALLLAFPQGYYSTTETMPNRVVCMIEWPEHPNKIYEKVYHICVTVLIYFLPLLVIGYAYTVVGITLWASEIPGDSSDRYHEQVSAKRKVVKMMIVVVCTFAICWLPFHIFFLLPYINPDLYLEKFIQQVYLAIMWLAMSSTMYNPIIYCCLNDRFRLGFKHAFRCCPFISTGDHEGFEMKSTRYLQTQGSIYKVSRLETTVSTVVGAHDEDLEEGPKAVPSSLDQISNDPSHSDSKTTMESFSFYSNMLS
Briefly: radioreceptor assay: binding of 3H-substance P to the bovine retina (according to H. Bittiger). Particulars: in vitro, read-out: in vitro values: inhibition of the binding of 3H-substance P to the bovine retina.
On to `CN(C)CCCOC(=O)N[C@H]1CCN(C(=O)c2cc(C(F)(F)F)cc(C(F)(F)F)c2)[C@H](Cc2ccccc2)C1` [16 (2nd compound), 3-dimethylaminopropyl (2R,4S)-N-[2-benzyl-1-(3,5-bistrifluoromethylbenzoyl)piperidin-4-yl]carbamate], for which the IC50 turned out to be 11 nM. To `CCNC(=O)N[C@H]1CCN(C(=O)c2cc(C(F)(F)F)cc(C(F)(F)F)c2)[C@H](Cc2ccc(Cl)cc2)C1` [45 (c), (2R,4S)-1-[1-(3,5-bistrifluoromethylbenzoyl)-2-(4-chlorobenzyl)piperdin-4-yl]-3-ethylurea] belongs 7.6 nM. For `NC(=O)CN[C@H]1CCN(C(=O)c2cc(C(F)(F)F)cc(C(F)(F)F)c2)[C@H](Cc2ccccc2)C1` [Example 2, (2R,4S)-2-[2-Benzyl-1-(3,5-bistrifluoromethylbenzoyl)piperidin-4-ylamino]-acetamide hydrochloride] the value was 10 nM. On to `CCCC(=O)N[C@H]1CCN(C(=O)c2cc(C(F)(F)F)cc(C(F)(F)F)c2)[C@H](Cc2ccc(Cl)cc2)C1` [Example 28, (2R,4S)-N-[1-(3,5-Bistrifluoromethylbenzoyl)-2-(4-chlorobenzyl)piperidin-4-yl]-butyramide], for which the IC50 stood at 11 nM.

`O=C(NC1CCCCC1)N[C@H]1CCN(C(=O)c2cc(C(F)(F)F)cc(C(F)(F)F)c2)[C@H](Cc2ccccc2)C1` [Example 45 (f), (2R,4S)-1-[2-benzyl-1-(3,5-bistrifluoromethylbenzoyl)piperidin-4-yl]-3-cyclohexylurea]: the IC50 is 9 nM.
